Measurements taken from patent publication US11246847B2, “Anticancer drug effect enhancer” (Delta-Fly Pharma, Inc., priority 2019, dated 2022).

Assays:
[1] = test system: stage IVB ovarian cancer; settings: from July 2018, bicarbonate continued, before endoxan
[2] = Change in pH of urine after citrate salt or sodium bicarbonate in a person with acidic urine (Example 1)
[3] = 3 g once a day, compared to potassium citrate•sodium citrate hydrate

## O=C([O-])O.[Na+] [sodium salt of hydrogencarbonate ions, sodium bicarbonate]
[1]
  value of CA125: 199
[2]; 3 g once a day after a meal
  side effect observed: the patient often burped
[2]; [3]
  rate of alkalization of urine: higher
  rate of urine turning acidic again: higher
  time during which the urine was kept alkaline: shorter
[2]; person with acidic urine, 6 tablets (3 g) orally once a day after a meal
  pH of urine / ability to keep the urine alkaline: poorer ability to keep the urine alkaline
